Experimental findings from ChEMBL document CHEMBL5528002, “Identification of selective 5-LOX and FLAP inhibitors as novel anti-inflammatory agents by ligand-based virtual screening” (Eur J Med Chem, 2024) are described below.

Activity calls are given as the source filed them. No cut-off for these calls is given here.

For assay [1], the system named is Macrophage cell line. The assay can be described thus: Effect on lipid mediator formation in human M1-like phenotype MDM cells by measuring EPA formation at 10 uM pre-incubated for 15 mins followed by SACM stimulation and measured after 90 mins by UPLC-MS/MS analysis relative to control. The assay is classed as functional. The note with it: time 105 min, 1.75 h.

The subject of assay [2] is Macrophage cell line. The assay can be described thus: Effect on lipid mediator formation in human M2-like phenotype MDM cells by measuring 7-HDHA formation at 10 uM pre-incubated for 15 mins followed by SACM stimulation and measured after 90 mins by UPLC-MS/MS analysis (reference value: 315 +/- 55 pg/ml). It is filed as functional. The note with it: time 105 min, 1.75 h.

Assay [3] deals with Macrophage cell line. The experiment in a line: Effect on lipid mediator formation in human M1-like phenotype MDM cells by measuring t-LTB4 formation at 10 uM pre-incubated for 15 mins followed by SACM stimulation and measured after 90 mins by UPLC-MS/MS analysis (reference value: 338 +/- 102 pg/ml). The assay is classed as functional. The settings on record: time 105 min, 1.75 h.

Assay [4] deals with Macrophage cell line. The assay can be described thus: Effect on lipid mediator formation in human M2-like phenotype MDM cells by measuring 5-HETE formation at 10 uM pre-incubated for 15 mins followed by SACM stimulation and measured after 90 mins by UPLC-MS/MS analysis relative to control. The note with it: time 105 min, 1.75 h. It is filed as functional.
In assay [5] the test system is Macrophage cell line. The experiment in a line: Effect on lipid mediator formation in human M2-like phenotype MDM cells by measuring DHA formation at 10 uM pre-incubated for 15 mins followed by SACM stimulation and measured after 90 mins by UPLC-MS/MS analysis (reference value: 50400 +/- 3051 pg/ml). The assay is classed as functional. The settings on record: time 105 min, 1.75 h.

In assay [6] the test system is Macrophage cell line. The experiment in a line: Effect on lipid mediator formation in human M2-like phenotype MDM cells by measuring PGD2 formation at 10 uM pre-incubated for 15 mins followed by SACM stimulation and measured after 90 mins by UPLC-MS/MS analysis relative to control. The settings on record: time 105 min, 1.75 h. It is filed as functional.
Assay [7] is described as follows: Antioxidant activity assessed as DPPH radical scavenging activity at 1 uM incubated for 30 min by DPPH assay. It is filed as functional.
Assay [8] deals with Macrophage cell line. The experiment in a line: Effect on lipid mediator formation in human M1-like phenotype MDM cells by measuring arachidonic acid formation at 10 uM pre-incubated for 15 mins followed by SACM stimulation and measured after 90 mins by UPLC-MS/MS analysis relative to control. It is filed as functional. The note with it: time 105 min, 1.75 h.
In assay [9] the test system is Macrophage cell line. The assay can be described thus: Effect on lipid mediator formation in human M1-like phenotype MDM cells by measuring DHA formation at 10 uM pre-incubated for 15 mins followed by SACM stimulation and measured after 90 mins by UPLC-MS/MS analysis (reference value: 66334 +/- 8894 pg/ml). The settings on record: time 105 min, 1.75 h. It is filed as functional.

Assay [10] deals with Macrophage cell line. The experiment in a line: Effect on lipid mediator formation in human M2-like phenotype MDM cells by measuring 5S,6R-diHETE formation at 10 uM pre-incubated for 15 mins followed by SACM stimulation and measured after 90 mins by UPLC-MS/MS analysis relative to control. It is filed as functional. The settings on record: time 105 min, 1.75 h.
Assay [11] addresses T1, Bifunctional epoxide hydrolase 2 (Homo sapiens) (UniProt P34913).
T1 sequence (whole entry): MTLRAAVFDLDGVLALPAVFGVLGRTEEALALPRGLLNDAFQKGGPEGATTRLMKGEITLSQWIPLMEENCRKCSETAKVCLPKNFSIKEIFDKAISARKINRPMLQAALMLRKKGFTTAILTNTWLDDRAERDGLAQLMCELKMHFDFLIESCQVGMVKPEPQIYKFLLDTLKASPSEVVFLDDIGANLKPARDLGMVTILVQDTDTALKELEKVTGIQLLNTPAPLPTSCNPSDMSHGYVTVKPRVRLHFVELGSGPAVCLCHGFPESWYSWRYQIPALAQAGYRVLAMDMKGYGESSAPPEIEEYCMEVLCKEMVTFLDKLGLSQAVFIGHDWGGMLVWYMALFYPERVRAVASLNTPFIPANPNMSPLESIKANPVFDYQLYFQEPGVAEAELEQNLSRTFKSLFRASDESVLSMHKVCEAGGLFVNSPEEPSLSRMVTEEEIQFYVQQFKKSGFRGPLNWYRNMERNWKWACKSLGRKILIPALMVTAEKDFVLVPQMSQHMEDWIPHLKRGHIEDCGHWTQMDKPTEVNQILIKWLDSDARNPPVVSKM
The assay can be described thus: Inhibition of human sEH assessed as enzyme remaining activity at 10 uM relative to control.

The subject of assay [12] is Macrophage cell line. The assay can be described thus: Effect on lipid mediator formation in human M1-like phenotype MDM cells by measuring 5S,6R-diHETE formation at 10 uM pre-incubated for 15 mins followed by SACM stimulation and measured after 90 mins by UPLC-MS/MS analysis relative to control. The assay is classed as functional. The note with it: time 105 min, 1.75 h.

Assay [13] deals with Macrophage cell line. The assay can be described thus: Effect on lipid mediator formation in human M1-like phenotype MDM cells by measuring 4-HDHA formation at 10 uM pre-incubated for 15 mins followed by SACM stimulation and measured after 90 mins by UPLC-MS/MS analysis (reference value: 58 +/- 9 pg/ml). The assay is classed as functional. The settings on record: time 105 min, 1.75 h.

For assay [14], the system named is Macrophage cell line. The experiment in a line: Effect on lipid mediator formation in human M1-like phenotype MDM cells by measuring 15-HETE formation at 10 uM pre-incubated for 15 mins followed by SACM stimulation and measured after 90 mins by UPLC-MS/MS analysis (reference value: 910 +/- 229 pg/ml). It is filed as functional. The settings on record: time 105 min, 1.75 h.

In assay [15] the test system is Macrophage cell line. The experiment in a line: Effect on lipid mediator formation in human M1-like phenotype MDM cells by measuring LTB4 formation at 10 uM pre-incubated for 15 mins followed by SACM stimulation and measured after 90 mins by UPLC-MS/MS analysis relative to control. It is filed as functional. The note with it: time 105 min, 1.75 h.
The target of assay [16] is T2, Polyunsaturated fatty acid 5-lipoxygenase (Homo sapiens) (UniProt P09917).
T2 sequence (whole entry): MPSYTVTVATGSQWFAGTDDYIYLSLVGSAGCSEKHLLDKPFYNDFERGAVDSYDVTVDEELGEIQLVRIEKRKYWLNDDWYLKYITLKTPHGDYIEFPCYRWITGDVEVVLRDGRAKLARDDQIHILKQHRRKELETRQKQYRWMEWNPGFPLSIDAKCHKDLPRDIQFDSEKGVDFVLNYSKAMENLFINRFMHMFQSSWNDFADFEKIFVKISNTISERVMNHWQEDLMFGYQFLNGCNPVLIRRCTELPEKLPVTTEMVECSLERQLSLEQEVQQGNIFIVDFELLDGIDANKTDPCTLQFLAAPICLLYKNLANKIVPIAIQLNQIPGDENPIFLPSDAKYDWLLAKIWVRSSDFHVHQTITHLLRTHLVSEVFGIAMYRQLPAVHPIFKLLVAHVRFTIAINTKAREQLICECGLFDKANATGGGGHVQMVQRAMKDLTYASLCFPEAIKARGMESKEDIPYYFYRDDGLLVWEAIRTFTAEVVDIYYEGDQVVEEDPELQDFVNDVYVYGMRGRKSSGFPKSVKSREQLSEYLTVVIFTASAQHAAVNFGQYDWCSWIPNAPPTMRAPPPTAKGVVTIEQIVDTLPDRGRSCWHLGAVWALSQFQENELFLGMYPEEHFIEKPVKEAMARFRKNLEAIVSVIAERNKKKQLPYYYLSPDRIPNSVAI
The experiment in a line: Inhibition of 5-LOX in human Neutrophil assessed as enzyme remaining activity at 10 uM using arachidonic acid as substrate preincubated with compound for 15 mins followed by substrate and A23187 addition measured after 10 mins by RP-HPLC analysis relative to control. The assay is classed as cell-based. The settings on record: time 25.0 min.

Take `Oc1ccc(CCC2CCC(c3ccc(O)cc3)CO2)cc1` (configuration not stated): the Activity in assay [1] worked out at 113%; in assay [2] it was 364 pg/mL; in [3], 29 pg/mL; in assay [4], 25%; in assay [5], 53713 pg/mL; in [6], 131%. For the same compound, the Activity in [8] is 108%; in [9], 62371 pg/mL; in assay [10] it was 7%; in [11], 103%; in assay [12] it was 5%; in assay [13], 44 pg/mL. For the same compound, the figures for the Activity in assay [14], in assay [15] and in assay [16] were 776 pg/mL, 6% and 24.3%, respectively. Moreover, the result in assay [7] was inactive.

Turning to `COc1ccc(C2=C/C(=C/c3ccc(O)cc3O)C(=O)O2)cc1`, the Activity in assay [1] came out at 136%; in [2] it was 383 pg/mL; in assay [3], 28 pg/mL; in assay [4] it was 9%; in [5], 53610 pg/mL; in [6] it was 201%. The Activity in [8] was found to be 116%; in assay [9], 71742 pg/mL; in [10], 4%; in assay [11], 71.5%; in assay [12], 5%; in [13] it was 47 pg/mL. In addition, the Activity in assay [14] is 823 pg/mL; in assay [15], 8%; in assay [16] it was 18.6%. Moreover, in assay [7], the result was inactive.
